Measured values published in ChEMBL document CHEMBL1144460, “Design, synthesis, and structural analysis of inhibitors of influenza neuraminidase containing a 2,3-disubstituted tetrahydrofuran-5-carboxylic acid core” (Bioorg Med Chem Lett, 2005).

Biological target: Neuraminidase (Influenza B virus (strain B/Lee/1940), UniProt P03474)
Assay: Inhibitory concentration of the compound was determined against neuraminidase B (B/Memphis/3/89) of Influenza virus

Chain of Neuraminidase (P03474 whole entry): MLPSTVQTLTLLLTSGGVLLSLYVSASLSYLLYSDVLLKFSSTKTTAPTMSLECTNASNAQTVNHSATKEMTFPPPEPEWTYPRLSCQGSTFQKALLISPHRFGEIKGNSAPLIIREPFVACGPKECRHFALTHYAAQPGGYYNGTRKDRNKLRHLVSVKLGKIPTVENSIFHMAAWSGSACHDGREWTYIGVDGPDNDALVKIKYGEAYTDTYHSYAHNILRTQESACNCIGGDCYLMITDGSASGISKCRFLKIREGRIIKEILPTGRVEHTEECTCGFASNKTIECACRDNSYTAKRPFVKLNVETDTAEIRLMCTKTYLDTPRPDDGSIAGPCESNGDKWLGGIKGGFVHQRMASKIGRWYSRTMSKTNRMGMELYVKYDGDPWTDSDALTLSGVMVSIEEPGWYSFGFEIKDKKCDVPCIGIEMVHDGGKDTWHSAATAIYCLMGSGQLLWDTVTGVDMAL

Compound | IC50 [nM]
CC(=O)N[C@@H](CC(C)C)[C@@H]1O[C@@H](C(=O)O)C[C@H]1c1c[nH]cn1 | 1000
COC(=O)[C@@H]1C[C@H](C(=O)O)O[C@H]1[C@H](CC(C)C)NC(C)=O | 960
COC(=O)[C@@H]1C[C@H](C(=O)O)N[C@H]1[C@H](CC(C)C)NC(C)=O | 56
